# In patent US10071081B2, “Compositions of 1,2,4-oxadiazole benzoic acid compounds and methods for their use” (PTC Therapeutics, Inc., priority 2003, dated 2018):
# Where a name gives a salt, the structure may show the parent alone.
# Tested on: luciferase reporter construct containing a UGA premature termination codon
# Test: cell-based luciferase reporter assay
# Design: species or system Human; key to Activity: *****: both extremely high potency and extremely high efficacy of protein synthesis; ****: extremely high potency of protein synthesis and very high efficacy; ****: very high potency of protein synthesis and extremely high efficacy; ***: both very high potency and very high efficacy of protein synthesis; **: very high potency of protein synthesis and significant efficacy; **: significant potency of protein synthesis and very high efficacy; *: significant potency and efficacy of protein synthesis
# Conditions: ranking combining potency and efficacy of protein synthesis; UGA luciferase reporter stably transfected in 293T Human Embryonic Kidney cells
# Method: Activity measurements in Table I were performed in a cell-based luciferase reporter assay (as described in Section 4.2) comprising a luciferase reporter construct containing a UGA premature termination codon that was stably transfected in 293T Human Embryonic Kidney cells. A small molecule, 3-[3-(4-Isopropyl-phenyl)-2,5-dioxo-imidazolidin-1-yl]-benzoic acid, known to allow readthrough of premature termination codons was used was used as an internal standard. Activity measurements are based on the qualitative relation between the minimum concentration of compound required to produce a given protein in a cell (potency) and the maximum amount of protein produced by the cell (efficacy). Potency and efficacy activities are ranked as either extremely high, very high or significant. The combination of these activities is used to determine the activity ranking.
# Two assays were developed for use in high throughput screens to identify small molecules that promote nonsense suppression. Each assay utilized luciferase because it is a functional reporter gene assay (light is only produced if the protein is functional) and it is extremely sensitive (Light intensity is proportional to luciferase concentration in the nM range). The first assay is a cell-based luciferase reporter assay and the second is a biochemical assay consisting of rabbit reticulocyte lysate and a nonsense-containing luciferase reporter mRNA. In the cell-based assay, a luciferase reporter construct containing a UGA premature termination codon was stably transfected in 293T Human Embryonic Kidney cells. In the biochemical assay, mRNA containing a UGA premature termination codon was used as a reporter in an in vitro translation reaction using rabbit reticulocyte lysate supplemented with tRNA, hemin, creatine kinase, amino acids, KOAc, Mg(OAc)2, and creatine phosphate. […] Synthetic mRNA was prepared in vitro using the T7 promoter and the MegaScript in vitro transcription kit (Ambion).
# To determine whether compounds also function in vivo, a stable cell line harboring the UGA nonsense-containing luciferase gene was treated with selected compounds. Cells were grown in standard medium supplemented with 1% penicillin-streptomycin (P/S) and 10% fetal bovine serum (FBS) to 70% confluency and split 1:1 the day before treatment. On the following day, cells were trypsinized and 40,000 cells were added to each well of a 96-well tissue culture dish. Serial dilutions of each compound were prepared to generate a six-point dose response curve spanning 2 logs (30 μM to 0.3 μM). The final concentration of the DMSO solvent remained constant at 1% in each well. Cells treated with 1% DMSO served as the background standard, and cells treated with gentamicin served as a positive control.
row,SMILES,Activity
1,"O=C(O)c1cccc(-c2noc(-c3ccccc3F)n2)c1 [Compound 28, 3-[5-(2-Fluoro-phenyl)-[1,2,4]oxadiazol-3-yl]-benzoic acid]",*****
2,"CCC(c1ccccc1)c1nc(-c2cccc(C(=O)O)c2)no1 (stereo not drawn) [Compound 45, 3-[5-(1-Phenyl-propyl)-[1,2,4]oxadiazol-3-yl]-benzoic acid]",*
3,"O=C(O)c1cccc(-c2noc(-c3ccc(N4CCOCC4)nc3)n2)c1 [Compound 83, 3-[5-(6-Morpholin-4-yl-pyridin-3-yl)-[1,2,4]oxadiazol-3-yl]-benzoic acid]",****
4,"O=C(O)c1cccc(-c2noc(Cc3cccs3)n2)c1 [Compound 32, 3-(5-Thiophen-2-ylmethyl-[1,2,4]oxadiazol-3-yl)-benzoic acid]",****
5,"COCCOCCOCCOCCOCCOC(=O)c1cccc(-c2noc(-c3ccccc3F)n2)c1 [Compound 91, 3-[5-(2-Fluoro-phenyl)-[1,2,4]oxadiazol-3-yl]-benzoic acid 2-(2-{2-[2-(2-methoxy-ethoxy)-ethoxy]-ethoxy}-ethoxy)-ethyl ester]",***
6,"O=C(OCCOCCOCCOCCOCCOCCO)c1cccc(-c2noc(-c3ccccc3F)n2)c1 [Compound 92, 3-[5-(2-Fluoro-phenyl)-[1,2,4]oxadiazol-3-yl]-benzoic acid 2-[2-(2-{2-[2-(2-hydroxy-ethoxy)-ethoxy]-ethoxy}-ethoxy)-ethoxy]-ethyl ester]",***
7,"O=C(O)c1cccc(-c2noc(-c3cccc(Cl)c3)n2)c1 [Compound 01, 3-[5-(3-Chloro-phenyl)-[1,2,4]oxadiazol-3-yl]-benzoic acid]",*****
8,"O=C(O)c1cccc(-c2noc(-c3ccncc3)n2)c1 [Compound 59, 3-(5-Pyridin-4-yl-[1,2,4]oxadiazol-3-yl)-benzoic acid]",***
9,"O=C(O)c1cccc(-c2noc(-c3ccc(F)c(F)c3)n2)c1 [Compound 39, 3-[5-(3,4-Difluoro-phenyl)-[1,2,4]oxadiazol-3-yl]-benzoic acid]",*****
10,"O=C(O)c1cccc(-c2noc(-c3ccc(Br)cc3F)n2)c1 [Compound 74, 3-[5-(4-Bromo-2-fluoro-phenyl)-[1,2,4]oxadiazol-3-yl]-benzoic acid]",***
11,"CN(C)c1ccc(-c2nc(-c3cccc(C(=O)O)c3)no2)cc1 [Compound 18, 3-[5-(4-Dimethylamino-phenyl)-[1,2,4]oxadiazol-3-yl]-benzoic acid]",****
12,"O=C(O)c1cccc(-c2noc(C3CCC3)n2)c1 [Compound 60, 3-(5-Cyclobutyl-[1,2,4]oxadiazol-3-yl)-benzoic acid]",**
13,"O=C(O)c1cccc(-c2noc(-c3ccc(N4CCCCC4)nc3)n2)c1 [Compound 84, 3-[5-(3,4,5,6-Tetrahydro-2H-[1,2′]bipyridinyl-5′-yl)-[1,2,4]oxadiazol-3-yl]-benzoic acid]",****
14,"O=C(O)c1ccc(F)c(-c2noc(-c3ccc(F)cc3)n2)c1 [Compound 71, 4-Fluoro-3-[5-(4-fluoro-phenyl)-[1,2,4]oxadiazol-3-yl]-benzoic acid]",*
15,"O=C(O)c1cccc(-c2noc(-c3ccno3)n2)c1 [Compound 52, 3-(5-Isoxazol-5-yl-[1,2,4]oxadiazol-3-yl)-benzoic acid]",**
16,"O=C([O][Na+])c1cccc(-c2noc(-c3ccccc3F)n2)c1 [Compound 78, 3-[5-(2-Fluoro-phenyl)-[1,2,4]oxadiazol-3-yl]-benzoic acid sodium salt]",*****
17,"O=C(O)c1cccc(-c2noc(Cc3ccc(F)cc3)n2)c1 [Compound 48, 3-[5-(4-Fluoro-benzyl)-[1,2,4]oxadiazol-3-yl]-benzoic acid]",****
18,"COc1ccccc1-c1nc(-c2cccc(C(=O)O)c2)no1 [Compound 19, 3-[5-(2-Methoxy-phenyl)-[1,2,4]oxadiazol-3-yl]-benzoic acid]",***
19,"COC(=O)c1cccc(-c2noc(-c3ccc(F)cc3)n2)c1 [Compound 79, 3-[5-(4-Fluoro-phenyl)-[1,2,4]oxadiazol-3-yl]-benzoic acid methyl ester]",***
20,"CC(C)(C)c1ccc(-c2nc(-c3cccc(C(=O)O)c3)no2)cc1 [Compound 25, 3-[5-(4-tert-Butyl-phenyl)-[1,2,4]oxadiazol-3-yl]-benzoic acid]",*****

row,SMILES,Activity
1,"O=C(O)c1cccc(-c2noc(-c3cccs3)n2)c1 [Compound 29, 3-(5-Thiophen-2-yl-[1,2,4]oxadiazol-3-yl)-benzoic acid]",****
2,"Nc1ccc(-c2nc(-c3cccc(C(=O)O)c3)no2)cc1 [Compound 93, 3-[5-(4-Amino-phenyl)-[1,2,4]oxadiazol-3-yl]-benzoic acid]",****
3,"N#Cc1ccc(-c2nc(-c3cccc(C(=O)O)c3)no2)cc1 [Compound 77, 3-[5-(4-Cyano-phenyl)-[1,2,4]oxadiazol-3-yl]-benzoic acid]",*****
4,"COCCOC(=O)c1cccc(-c2noc(-c3ccccc3F)n2)c1 [Compound 87, 3-[5-(2-Fluoro-phenyl)-[1,2,4]oxadiazol-3-yl]-benzoic acid 2-methoxy-ethyl ester]",***
5,"CN(C)c1cccc(-c2nc(-c3cccc(C(=O)O)c3)no2)c1 [Compound 66, 3-[5-(3-Dimethylamino-phenyl)-[1,2,4]oxadiazol-3-yl]-benzoic acid]",****
6,"COCCOCCOCCOC(=O)c1cccc(-c2noc(-c3ccccc3F)n2)c1 [Compound 89, 3-[5-(2-Fluoro-phenyl)-[1,2,4]oxadiazol-3-yl]-benzoic acid 2-[2-(2-methoxy-ethoxy)-ethoxy]-ethyl ester]",**
7,"O=C(O)c1cccc(-c2noc(-c3cccc(F)c3)n2)c1 [Compound 37, 3-[5-(3-Fluoro-phenyl)-[1,2,4]oxadiazol-3-yl]-benzoic acid]",*****
8,"O=C(O)c1cccc(-c2noc(-c3ccc(F)cc3)n2)c1 [Compound 05, 3-[5-(4-Fluoro-phenyl)-[1,2,4]oxadiazol-3-yl]-benzoic acid]",*****
9,"CCc1ccc(-c2nc(-c3cccc(C(=O)O)c3)no2)cc1 [Compound 38, 3-[5-(4-Ethyl-phenyl)-[1,2,4]oxadiazol-3-yl]-benzoic acid]",*****
10,"CSc1ncccc1-c1nc(-c2cccc(C(=O)O)c2)no1 [Compound 69, 3-[5-(2-Methylsulfanyl-pyridin-3-yl)-[1,2,4]oxadiazol-3-yl]-benzoic acid]",****
11,"O=C(O)c1cccc(-c2noc(-c3cccc(F)c3F)n2)c1 [Compound 67, 3-[5-(2,3-Difluoro-phenyl)-[1,2,4]oxadiazol-3-yl]-benzoic acid]",****
12,"CCCCc1nc(-c2cccc(C(=O)O)c2)no1 [Compound 26, 3-(5-Butyl-[1,2,4]oxadiazol-3-yl)-benzoic acid]",****
13,"O=C(O)c1cccc(-c2noc(-c3c(F)cccc3F)n2)c1 [Compound 36, 3-[5-(2,6-Difluoro-phenyl)-[1,2,4]oxadiazol-3-yl]-benzoic acid]",****
14,"Cc1cccc(-c2nc(-c3cccc(C(=O)O)c3)no2)c1 [Compound 40, 3-(5-m-Tolyl-[1,2,4]oxadiazol-3-yl)-benzoic acid]",*****
15,"O=C(O)c1cccc(-c2noc(COc3ccc(Cl)cc3)n2)c1 [Compound 34, 3-[5-(4-Chloro-phenoxymethyl)-[1,2,4]oxadiazol-3-yl]-benzoic acid]",****
16,"O=C(O)c1cccc(-c2noc(-c3cccc4ccccc34)n2)c1 [Compound 03, 3-(5-Naphthalen-1-yl-[1,2,4]oxadiazol-3-yl)-benzoic acid]",****
17,"COc1ccc(-c2nc(-c3cccc(C(=O)O)c3)no2)cc1 [Compound 12, 3-[5-(4-Methoxy-phenyl)-[1,2,4]oxadiazol-3-yl]-benzoic acid]",*****
18,"O=C(O)c1cccc(-c2noc(-c3ccc(Cl)cc3F)n2)c1 [Compound 73, 3-[5-(4-Chloro-2-fluoro-phenyl)-[1,2,4]oxadiazol-3-yl]-benzoic acid]",****
19,"C/C=C/c1nc(-c2cccc(C(=O)O)c2)no1 [Compound 30, 3-(5-Propenyl-[1,2,4]oxadiazol-3-yl)-benzoic acid]",****
